One assay has as its target T1, CDK2/CycE (Homo sapiens, UniProt P24941).
T1 construct: GST; purchased ProQinase GmbH (Freiburg, Germany); host or cells: insect cells (Sf9)
Nature of the assay: CDK2/CycE high ATP kinase assay (Method 2b, TR-FRET, 2 mM ATP). It counts as biochemical. Here is the method:
2b. CDK2/CycE High ATP Kinase Assay:
CDK2/CycE-inhibitory activity of compounds of the present invention at 2 mM adenosine-tri-phosphate (ATP) was quantified employing the CDK2/CycE TR-FRET (TR-FRET=Time Resolved Fluorescence Resonance Energy Transfer) assay as described in the following paragraphs.
Recombinant fusion proteins of GST and human CDK2 and of GST and human CycE, expressed in insect cells (Sf9) and purified by Glutathion-Sepharose affinity chromatography, were purchase from ProQinase GmbH (Freiburg, Germany). As substrate for the kinase reaction biotinylated peptide biotin-Ttds-YISPLKSPYKISEG (C-terminus in amid form) was used which can be purchased e.g. from the company JERINI peptide technologies (Berlin, Germany).
For the assay 50 nl of a 100 fold concentrated solution of the test compound in DMSO was pipetted into a black low volume 384 well microtiter plate (Greiner Bio-One, Frickenhausen, Germany), 2 μl of a solution of CDK2/CycE in aqueous assay buffer [50 mM Tris/HCl pH 8.0, 10 mM MgCl2, 1.0 mM dithiothreitol, 0.1 mM sodium ortho-vanadate, 0.01% (v/v) Nonidet-P40 (Sigma)] were added and the mixture was incubated for 15 min at 22° C. to allow pre-binding of the test compounds to the enzyme before the start of the kinase reaction. […] The concentration of CDK2/CycE was adjusted depending of the activity of the enzyme lot and was chosen appropriate to have the assay in the linear range, typical concentrations were in the range of 15 ng/ml. The reaction was stopped by the addition of 5 μl of a solution of TR-FRET detection reagents (0.2 μM streptavidine-XL665 [Cisbio Bioassays, Codolet, France] and 1 nM anti-RB(pSer807/pSer811)-antibody from BD Pharmingen [#558389] and 1.2 nM LANCE EU-W1024 labeled anti-mouse IgG antibody [Perkin-Elmer, product no. AD0077, as an alternative a Terbium-cryptate-labeled anti-mouse IgG antibody from Cisbio Bioassays can be used]) in an aqueous EDTA-solution (100 mM EDTA, 0.2% (w/v) bovine serum albumin in 100 mM HEPES pH 7.5).
The resulting mixture was incubated 1 h at 22° C. to allow the formation of complex between the phosphorylated biotinylated peptide and the detection reagents. Subsequently the amount of phosphorylated substrate was evaluated by measurement of the resonance energy transfer from the Eu-chelate to the streptavidine-XL. Therefore, the fluorescence emissions at 620 nm and 665 nm after excitation at 350 nm wer measured in a TR-FRET reader, e.g. a Rubystar (BMG Labtechnologies, Offenburg, Germany) or a Viewlux (Perkin-Elmer). The ratio of the emissions at 665 nm and at […] was taken as the measure for the amount of phosphorylated substrate. The data were normalised (enzyme reaction without inhibitor=0% inhibition, all other assay components but no enzyme=100% inhibition).
A general note: TR-FRET usually uses a lanthanide donor and a delayed reading to cut background.

The target in assay [1] is T2, human PTEFb (CDK9/Cyclin T1) (Homo sapiens, UniProt P50750).
T2 construct: purchased ProQinase, Freiburg, Germany
T2 sequence (P50750 whole entry): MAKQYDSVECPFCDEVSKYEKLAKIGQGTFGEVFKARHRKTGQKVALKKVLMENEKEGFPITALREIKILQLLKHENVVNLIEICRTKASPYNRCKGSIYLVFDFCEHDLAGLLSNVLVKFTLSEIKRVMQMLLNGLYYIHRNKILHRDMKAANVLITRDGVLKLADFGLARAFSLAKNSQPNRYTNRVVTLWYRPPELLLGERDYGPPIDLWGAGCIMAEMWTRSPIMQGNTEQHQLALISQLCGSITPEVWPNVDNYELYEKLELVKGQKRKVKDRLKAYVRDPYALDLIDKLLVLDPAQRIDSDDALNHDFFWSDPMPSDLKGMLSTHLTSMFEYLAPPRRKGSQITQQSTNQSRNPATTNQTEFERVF
T2 sequence (O60563 whole entry partner): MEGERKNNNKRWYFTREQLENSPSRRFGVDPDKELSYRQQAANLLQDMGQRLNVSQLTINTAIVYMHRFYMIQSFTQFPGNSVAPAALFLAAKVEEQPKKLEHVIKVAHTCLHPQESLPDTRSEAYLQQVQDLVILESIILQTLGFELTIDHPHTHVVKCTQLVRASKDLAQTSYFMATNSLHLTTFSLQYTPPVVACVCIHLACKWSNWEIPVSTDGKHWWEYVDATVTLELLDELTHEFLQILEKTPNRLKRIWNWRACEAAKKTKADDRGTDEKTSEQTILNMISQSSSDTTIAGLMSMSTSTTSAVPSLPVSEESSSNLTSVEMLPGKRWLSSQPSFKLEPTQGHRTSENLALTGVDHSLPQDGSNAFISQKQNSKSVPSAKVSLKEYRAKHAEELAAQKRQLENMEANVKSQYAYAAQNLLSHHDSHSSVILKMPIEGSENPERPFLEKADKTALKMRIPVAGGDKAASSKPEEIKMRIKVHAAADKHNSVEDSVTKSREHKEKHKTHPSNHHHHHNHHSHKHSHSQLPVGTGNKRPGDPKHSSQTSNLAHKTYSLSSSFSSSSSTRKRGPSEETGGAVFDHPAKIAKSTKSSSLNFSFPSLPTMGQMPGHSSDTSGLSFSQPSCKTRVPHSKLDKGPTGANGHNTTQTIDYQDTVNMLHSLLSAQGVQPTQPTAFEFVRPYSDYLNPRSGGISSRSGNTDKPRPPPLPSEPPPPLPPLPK
Briefly: Surface Plasmon Resonance PTEFb. It counts as binding. The note with it: for Target resident time: 1/koff; for koff: read-out: Dissociation rate constant koff. The source says: 8. Surface Plasmon Resonance PTEFb
The ability of the compounds according to the invention to bind human PTEFb may be determined using surface plasmon resonance (SPR). KD values and koff values may be measured using a Biacoret T200 instrument (GE Healthcare, Uppsala, Sweden).
For SPR measurements, recombinant human PTEFb (CDK9/Cyclin T1 recombinant human active protein kinase purchased from ProQinase, Freiburg, Germany) is immobilized using standard amine coupling (Johnsson B et al, Anal Biochem. 1991 Nov. 1; 198(2):268-77). Briefly, carboxymethylated dextran biosensor chips (CM7, GE Healthcare) are activated with N-ethyl-N′-(3-dimethylaminopropyl)-carbodiimide hydrochloride (EDC) and N-hydroxysuccinimide (NHS) according to the supplier's instructions. Human PTEFb is diluted in 1×HBS-EP+(GE Healthcare) into 30 μg/ml and injected on the activated chip surface. Subsequently, a 1:1 solution of 1 M ethanolamine-HCl (GE Healthcare) and 1×HBS-EP is injected to block unreacted groups, resulting in approximately 4000 response units (RU) of immobilized protein. A reference surface is generated by treatment with NHS-EDC and ethanolamine-HCl. Compounds are dissolved in 100% dimethylsulfoxide (DMSO, Sigma-Aldrich, Germany) to a concentration of 10 mM and subsequently diluted in running buffer (1×HBS-EP+pH 7.4 [generated from HBS-EP+Buffer 10×(GE Healthcare): 0.1 M HEPES, 1.5 M NaCl, 30 mM EDTA and 0.5% v/v Surfactant P20], 1% v/v DMSO). For kinetic measurements, four-fold serial dilutions of compound (0.39 nM to 100 nM) are injected over immobilized protein. […] Compound concentrations are injected for 60 s followed by a dissociation time of 1800 s. The resulting sensorgrams are double-referenced against the reference surface as well as against blank injections.
The double-referenced sensorgrams are fit to a simple reversible Langmuir 1:1 reaction mechanism as implemented in the Biacore® T200 evaluation software 2.0 (GE Healthcare). In cases were full compound dissociation has not occurred at the end of the dissociation phase, the Rmax parameter (response at saturation) is fit as local variable. In all other cases, Rmax is fit as global variable.

SMILES strings stand for the structures. Like-named read-outs stand apart in the source and are kept apart here. Marks after values point to notes of the source that are not given here.

Consider `CS(=N)(=N)Cc1cc2cc(c1)OCCCCOc1cc(F)ccc1-c1nc(ncc1F)N2` [Example 5, 16,20-difluoro-9-[(S-methylsulfonodiimidoyl)methyl]-2,3,4,5-tetrahydro-12H-13,17-(azeno)-11,7-(metheno)-1,6,12,14-benzodioxadiazacyclononadecine], for which inhibition against CDK2/CycE was half-maximal at 1240 nM (IC50). Moreover, the Target resident time in assay [1] (25° C., Parameters C) is 49 min; in assay [1] (25° C., Parameters D) it was 40 min; in assay [1] (37° C., Parameters E), 21* min. Further, the off-rate (koff) (as a rule, a measure of how fast the partners let go of each other) was 0.000338 s⁻¹ in assay [1] (25° C., Parameters C); 0.000412 s⁻¹ in assay [1] (25° C., Parameters D); 0.000809 s⁻¹ in assay [1] (37° C., Parameters E).
Take `CS(=N)(Cc1cc2nc(c1)OCCCOc1cc(F)ccc1-c1cc(ncc1F)N2)=NC#N` (racemic) [Example 3, (rac)-[{[15,19-difluoro-3,4-dihydro-2H,11H-10,6-(azeno)-12,16-(metheno)-1,5,11,13-benzodioxadiazacyclooctadecin-8-yl]methyl}(imino)methyl-λ^6-sulfanylidene]cyanamide]: the half-maximal inhibitory concentration (IC50) (usually the concentration that gives 50% inhibition) at CDK2/CycE was found to be 62.4 nM. Moreover, in assay [1] (25° C., Parameters B), the Target resident time was more than 666 min and the koff was less than 2.5e-05 s⁻¹. In assay [1] (25° C., Parameters C), the Target resident time is more than 333 min and the koff was less than 5e-05 s⁻¹.
Molecule `CS(=N)(Cc1cc2nc(c1)OCCCOc1cc(F)ccc1-c1cc(ncc1F)N2)=NCCCO` (racemic) [Example 2, (rac)-3-(2-{[15,19-difluoro-3,4-dihydro-2H,11H-10,6-(azeno)-12,16-(metheno)-1,5,11,13-benzodioxadiazacyclooctadecin-8-yl]methyl}-2-methyl-2λ^6-diazathia-1,2-dien-1-yl)propan-1-ol] came in with an IC50 on CDK2/CycE of 246 nM. Besides, in assay [1] (25° C., Parameters B), the Target resident time is more than 666 min and the koff is less than 2.5e-05 s⁻¹. In assay [1] (25° C., Parameters C), the Target resident time was more than 333 min and the off-rate (koff) is less than 5e-05 s⁻¹.
At CDK2/CycE, `CS(=N)(=N)Cc1cc2cc(c1)OCCCCOc1c(ccc(F)c1F)-c1nc(ncc1F)N2` [Example 6, 16,20,21-trifluoro-9-[(S-methylsulfonodiimidoyl)methyl]-2,3,4,5-tetrahydro-12H-13,17-(azeno)-11,7-(metheno)-1,6,12,14-benzodioxadiazacyclononadecine] had a 50% inhibitory concentration (IC50) of 12500 nM. Further, in assay [1] (25° C., Parameters B), the Target resident time is 9* min and the koff amounted to 0.00188 s⁻¹.
`CS(=N)(=N)Cc1cc2cc(c1)OCCCCOc1c(F)cccc1-c1nc(ncc1F)N2` [Example 7, 16,21-difluoro-9-[(S-methylsulfonodiimidoyl)methyl]-2,3,4,5-tetrahydro-12H-13,17-(azeno)-11,7-(metheno)-1,6,12,14-benzodioxadiazacyclononadecine]: in assay [1] (25° C., Parameters G), the Target resident time is recorded as 11* min and the koff is 0.00154 s⁻¹.
On CDK2/CycE, `CS(=N)(=N)Cc1cc2nc(c1)OCCCOc1cc(F)ccc1-c1cc(ncc1F)N2` [Example 1, 15,19-difluoro-8-[(S-methylsulfonodiimidoyl)methyl]-3,4-dihydro-2H,11H-10,6-(azeno)-12,16-(metheno)-1,5,11,13-benzodioxadiazacyclooctadecine] returned a 50% inhibitory concentration (IC50) of 140 nM. In assay [1] (25° C., Parameters A), the Target resident time was more than 333 min and the koff is less than 5e-05 s⁻¹. Moreover, in assay [1] (25° C., Parameters B), the Target resident time is more than 666 min and the off-rate constant (koff) is less than 2.5e-05 s⁻¹.
Molecule `CN=S(C)(=N)Cc1cc2cc(c1)OCCCCOc1cc(F)ccc1-c1nc(ncc1F)N2` (racemic) [Example 10, (rac)-9-[(N,S-dimethylsulfonodiimidoyl)methyl]-16,20-difluoro-2,3,4,5-tetrahydro-12H-13,17-(azeno)-11,7-(metheno)-1,6,12,14-benzodioxadiazacyclononadecine] yielded a half-inhibitory concentration (IC50) at CDK2/CycE of 1650 nM. Besides, in assay [1] (37° C., Parameters E), the Target resident time is 20* min and the dissociation rate constant (koff) stood at 0.000833 s⁻¹.
Molecule `CS(=N)(=N)Cc1cc2nc(c1C#N)OCCCOc1cc(F)ccc1-c1cc(ncc1F)N2` [Example 8, 15,19-difluoro-8-[(S-methylsulfonodiimidoyl)methyl]-3,4-dihydro-2H,11H-10,6-(azeno)-12,16-(metheno)-1,5,11,13-benzodioxadiazacyclooctadecine-7-carbonitrile] showed an IC50 on CDK2/CycE of 378 nM. Moreover, in assay [1] (25° C., Parameters G), the Target resident time is given as 51* min and the koff was 0.000326 s⁻¹.
`CN=S(C)(=N)Cc1cc2nc(c1)OCCCOc1cc(F)ccc1-c1cc(ncc1F)N2` (racemic) [Example 4, (rac)-8-[(N,S-dimethylsulfonodiimidoyl)methyl]-15,19-difluoro-3,4-dihydro-2H,11H-10,6-(azeno)-12,16-(metheno)-1,5,11,13-benzodioxadiazacyclooctadecine]: the IC50 at CDK2/CycE is 620 nM. In assay [1] (25° C., Parameters B), the koff came out at 4.96e-05 s⁻¹. Besides, in assay [1] (25° C., Parameters D), the Target resident time was determined as 70 min and the dissociation rate constant (koff) stood at 0.000237 s⁻¹.
On to `CS(=N)(Cc1cc2cc(c1)OCCCCOc1cc(F)ccc1-c1nc(ncc1F)N2)=NC1CC1` (racemic) [Example 9, (rac)-9-[(N-cyclopropyl-S-methylsulfonodiimidoyl)methyl]-16,20-difluoro-2,3,4,5-tetrahydro-12H-13,17-(azeno)-11,7-(metheno)-1,6,12,14-benzodioxadiazacyclononadecine], for which, at CDK2/CycE, the IC50 turned out to be 997 nM. In addition, in assay [1] (25° C., Parameters F), the Target resident time was 79* min and the dissociation rate constant (koff) amounted to 0.000211 s⁻¹.

(Values after patent US10717749B2, “Macrocyclic sulfondiimine compounds” (BAYER PHARMA AKTIENGESELLSCHAFT, priority 2015, dated 2020).)
